Source: US8883963B2 (Cadila Healthcare Limited, priority 2007, dated 2014)
Starred links: 1 amine or outer side, 2 acyl side, 3 side chain; linkers in the order of their positions; H or OH if unused. Non-standard residues stand in square brackets, D forms with d. Residues, ends and D or L forms follow the SMILES beside them. ξ: configuration not given here. *: point of attachment. X9 = CCc1cc(OC)ccc1-c1ccc(CC(NC(=S)[C@H](CC(=O)O)N*)C(=S)NC(CCCc2ccccc2F)C(N)=O)cc1; ξBip(2'-Et-4'-OMe) = CCc1cc(OC)ccc1-c1ccc(CC(N)C(=O)O)cc1; X6 = O=C(C(CCCc1ccc(Cl)cc1Cl)N[*:1])[*:2]; X10 = O=C(C(CCCc1ccc(F)cc1F)N[*:1])[*:2]; ξbishPhe(2-F) = NC(CCCc1ccccc1F)C(=O)O; ξαMePhe(2-F) = CC(N)(Cc1ccccc1F)C(=O)O; aThr = C[C@H](O)[C@H](N)C(=O)O; ξhhPhe = NC(CCCc1ccccc1)C(=O)O; ξAbu(4-CN) = N#CCCC(N)C(=O)O; Ac5c = NC1(C(=O)O)CCCC1; Aib = CC(C)(N)C(=O)O

Tests used:
[1] = target: T1, human glucagon receptor (Homo sapiens, UniProt P47871); experiment: In vitro human glucagon antagonist activity (inhibition of cAMP production) in CHO/human glucagon R cells; format: cell-based; conditions: with saturated concentration of glucagon peptide
T1 construct: The full-length cDNA was cloned in pcDNA3.1 (Invitrogen); expressed in transfected cells
Protocol: The CHO-K1 cells (CRL 9618) were obtained from American Type Culture Collection (Rockville, Md.). CHO cells were grown in Ham's F12 medium containing L-Glutamine (2 mM), HEPES (25 mM), NaHCO3 (1.1 g/L) and supplemented with newborn Calf Serum (NBCS; 10%), Penicillin (50 U/ml (v/v)) and Streptomycin (50 ug/ml (v/v)). Cells were split every 3 days 1:8.
The full-length cDNA was cloned in pcDNA3.1 (Invitrogen). […] Clones expressing the receptor were generated by G418 (800 μg/ml active, Sigma) selection. The stable clones were thereafter maintained at 500 ug/ml (G418). The selected clone was used between passages 9-25 for cAMP assays.
The cells were trypsinized using 2 ml of TPVG (0.25% trypsin, 0.53 mM EDTA, 1.38-mM glucose). The trypsin was inactivated using Ham's F12 medium containing 10% NBCS and the cells were suspended in 2 ml of complete medium. […] The medium was aspirated off from the 12 well plate and the cells were washed once using Ham's F12 (plain). The cells were incubated at 37° C. with 500 ul of Ham's F12+1% BSA+0.125 mM RO-20 for 30 min. […] After the incubation, the medium was removed and cells were washed once with plain Ham's F12. Subsequently, the cells were lysed by adding 500 ul of ice cold 0.1 N HCl to each well and shaking for 30 minutes at 200 rpm. The cells were then scrapped, the lysate was collected in micro centrifuge tubes and centrifuged at 12000 rpm for 10 min to remove the debris. 300 ul of supernatant from each micro-centrifuge tube was then removed into a glass tube and dried under N2 for 30 min, for cAMP estimation. The total cAMP was estimated from the sample according to the manufacturer's protocol using Cyclic AMP immunoassay kit (R&D systems, Minneapolis. MN). The remaining supernatant is used to determine the protein concentration using micro BCA (Sigma). Data is calculated as percent of control (Vehicle: water) and expressed as Mean+SD.

[2] = system: RIN5F (Rat Insulinoma) cells; experiment: In vitro glucose-dependent insulin secretion (RIN5F cell assay screening protocol); format: cell-based; conditions: 16.7 mM glucose load
Protocol: RIN5F (Rat Insulinoma) cells were cultured in RPMI 1640 medium supplemented with sodium pyruvate (1 mM) HEPES and Glucose (4.5 g/L) in a humidified incubator (5% CO2), at 37° C. After trypsinization, RIN5F cells were seeded at a concentration of 0.2×10^6 cells per well, in 12 well plates.
The buffer was replaced after 40 min. and the cells were incubated (37° C.) with the test peptidomimetics, at different concentration, for 30 min., both in the presence (16.7 mM) and absence (0 mM) of glucose load. The supernatant was collected and the insulin amount was measured by ultra sensitive Rat insulin ELISA kit (Crystal Chem, IL). The protein was estimated in the supernatant using Bicinchoninic Acid kit, according to the manufacturer's protocol (Sigma Aldrich, MO). The total insulin content obtained in Pico-gram (pg) was divided with the total protein (μg) in order to normalize for differences in cell density between wells.

T1 sequence (P47871 26-477): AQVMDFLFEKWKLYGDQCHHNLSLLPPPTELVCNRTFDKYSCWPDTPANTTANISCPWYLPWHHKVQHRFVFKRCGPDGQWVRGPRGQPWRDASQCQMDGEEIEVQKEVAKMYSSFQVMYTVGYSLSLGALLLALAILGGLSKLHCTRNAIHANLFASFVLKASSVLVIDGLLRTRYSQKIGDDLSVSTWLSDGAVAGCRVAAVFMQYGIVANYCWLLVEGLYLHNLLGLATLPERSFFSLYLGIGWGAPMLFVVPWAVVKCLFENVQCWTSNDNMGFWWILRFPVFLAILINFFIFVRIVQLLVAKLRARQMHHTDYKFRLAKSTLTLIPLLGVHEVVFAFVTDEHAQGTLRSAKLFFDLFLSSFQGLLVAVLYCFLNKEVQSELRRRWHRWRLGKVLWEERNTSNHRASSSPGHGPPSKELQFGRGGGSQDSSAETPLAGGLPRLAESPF

Row | Structure (SMILES) | Human Glucagon receptor antagonistic activity shown as inhibition of cAMP production of Glucagon peptide ([1]; 1 nM test compound) [pmol/ml/μg prt] | Human Glucagon receptor antagonistic activity shown as inhibition of cAMP production of Glucagon peptide ([1]; 10 nM test compound) [pmol/ml/μg prt] | Human Glucagon receptor antagonistic activity shown as inhibition of cAMP production of Glucagon peptide ([1]; 100 nM test compound) [pmol/ml/μg prt] | Human Glucagon receptor antagonistic activity shown as inhibition of cAMP production of Glucagon peptide ([1]; 1 μM test compound) [pmol/ml/μg prt] | Human Glucagon receptor antagonistic activity shown as inhibition of cAMP production of Glucagon peptide ([1]; 10 μM test compound) [pmol/ml/μg prt] | Insulin secretion ([2]; 0.1 nM test compd.) [pg/µg/h] | Insulin secretion ([2]; 1 nM test compd.) [pg/µg/h] | Insulin secretion ([2]; 10 nM test compd.) [pg/µg/h]
1 | CCc1cc(OC)ccc1-c1ccc(CC(NC(=O)[C@H](CC(=O)O)NC(=O)[C@H](CO)NC(=O)[C@@H](NC(=O)C(C)(Cc2ccccc2F)NC(=O)[C@@H](NC(=O)CNC(=O)[C@H](CC(C(F)(F)F)C(F)(F)F)NC(=O)C(C)(C)NC(=O)[C@@H](N)Cc2c[nH]cn2)[C@@H](C)O)[C@H](C)O)C(=O)NC(CCCc2ccccc2)C(N)=O)cc1 (single isomer, unassigned) [compound 225] | 5 ± 0.01 | 2 ± 0.17 | 0 | 0 | 0 | 12.4 ± 0.22 | 15.2 ± 0.32 | 29.6 ± 0.50
2 | CCc1cc(OC)ccc1-c1ccc(CC(NC(=O)[C@H](CC(=O)O)NC(=O)[C@H](CO)NC(=O)[C@@H](NC(=O)C(C)(Cc2ccccc2F)NC(=O)[C@@H](NC(=O)CNC(=O)[C@H](CCC(N)=O)NC(=O)C(C)(C)NC(=O)[C@@H](N)Cc2c[nH]cn2)[C@@H](C)O)[C@@H](C)O)C(=O)NC(CCCc2cccc(Cl)c2)C(N)=O)cc1 (single isomer, unassigned) [compound 39] |  |  |  |  |  | 11.1 ± 0.12 | 13.1 ± 0.13 | 19.0 ± 0.16
3 | CCc1cc(OC)ccc1-c1ccc(CC(NC(=O)[C@H](CC(=O)O)NC(=O)[C@H](CO)NC(=O)[C@@H](NC(=O)[C@H](Cc2ccccc2)NC(=O)[C@@H](NC(=O)CNC(=O)[C@H](CCC(N)=O)NC(=O)C2(NC(=O)[C@@H](N)Cc3c[nH]cn3)CCCC2)[C@@H](C)O)[C@@H](C)O)C(=O)NC(CCCc2ccccc2)C(N)=O)cc1 (some centres unmarked) [compound 25] (H-H[Ac5c]QGTFTSD[ξBip(2'-Et-4'-OMe)][ξhhPhe]-NH2) |  |  |  |  |  | 15.6 ± 0.30 | 21.8 ± 0.11 | 35.6 ± 0.20
4 | CCc1cc(OC)ccc1-c1ccc(CC(NC(=O)[C@H](CC(=O)O)NC(=O)[C@H](CO)NC(=O)[C@@H](NC(=O)C(C)(Cc2ccccc2F)NC(=O)[C@@H](NC(=O)CNC(=O)[C@H](CCC(N)=O)NC(=O)C(C)(C)NC(=O)[C@@H](N)Cc2c[nH]cn2)[C@H](C)O)[C@H](C)O)C(=O)NC(CCCc2ccccc2)C(N)=O)cc1 (some centres unmarked) [compound 113] (H-H[Aib]QG[aThr][ξαMePhe(2-F)][aThr]SD[ξBip(2'-Et-4'-OMe)][ξhhPhe]-NH2) |  |  |  |  |  | 15.6 ± 0.31 | 21.8 ± 0.16 | 35.6 ± 0.28
5 | CCc1cc(OC)ccc1-c1ccc(CC(NC(=O)[C@H](CC(=O)O)NC(=O)[C@H](CO)NC(=O)[C@@H](NC(=O)C(C)(Cc2ccccc2F)NC(=O)[C@@H](NC(=O)CNC(=O)[C@H](CCC(N)=O)NC(=O)C(C)(C)NC(=O)[C@@H](N)Cc2c[nH]cn2)[C@H](C)O)[C@@H](C)O)C(=O)NC(CCCc2ccccc2F)C(N)=O)cc1 (some centres unmarked) [compound 111] (H-H[Aib]QG[aThr][ξαMePhe(2-F)]TSD[ξBip(2'-Et-4'-OMe)][ξbishPhe(2-F)]-NH2) |  |  |  |  |  | 16.2 ± 0.20 | 22.2 ± 0.20 | 36.1 ± 0.31
6 | CCc1cc(OC)ccc1-c1ccc(CC(NC(=O)[C@H](CC(=O)O)NC(=O)[C@H](CO)NC(=O)[C@@H](NC(=O)C(C)(Cc2ccccc2F)NC(=O)[C@@H](NC(=O)CNC(=O)[C@H](CCC(N)=O)NC(=O)C(C)(C)NC(=O)[C@@H](N)Cc2c[nH]cn2)[C@H](C)O)[C@@H](C)O)C(=O)NC(CCCc2ccccc2)C(N)=O)cc1 (some centres unmarked) [compound 109] (H-H[Aib]QG[aThr][ξαMePhe(2-F)]TSD[ξBip(2'-Et-4'-OMe)][ξhhPhe]-NH2) |  |  |  |  |  | 12.6 ± 0.25 | 15.3 ± 0.31 | 29.7 ± 0.48
7 | CCc1cc(OC)ccc1-c1ccc(CC(NC(=O)[C@H](CC(=O)O)NC(=O)[C@H](CO)NC(=O)[C@@H](NC(=O)C(C)(Cc2ccccc2F)NC(=O)[C@@H](NC(=O)CNC(=O)[C@H](CCC(N)=O)NC(=O)C(C)(C)NC(=O)[C@H](Cc2c[nH]cn2)NC(C)=O)[C@H](C)O)[C@H](C)O)C(=O)NC(CCCc2ccccc2F)C(N)=O)cc1 (single isomer, unassigned) [compound 103] |  |  |  |  |  | 12.1 ± 0.51 | 14.1 ± 0.19 | 28.1 ± 0.29
8 | CCc1cc(OC)ccc1-c1ccc(CC(NC(=O)[C@H](CC(=O)O)NC(=O)[C@H](CO)NC(=O)[C@@H](NC(=O)[C@H](Cc2ccccc2)NC(=O)[C@@H](NC(=O)CNC(=O)[C@H](CCC(N)=O)NC(=O)[C@H](CO)NC(=O)[C@@H](N)Cc2c[nH]cn2)[C@@H](C)O)[C@@H](C)O)C(=O)NC(CCCc2ccc(F)cc2F)C(N)=O)cc1 (some centres unmarked) [compound 46] (H-HSQGTFTSD[ξBip(2'-Et-4'-OMe)][X10]-NH2) |  |  |  |  |  | 12.7 ± 0.21 | 15.8 ± 0.33 | 29.3 ± 0.19
9 | CCc1cc(OC)ccc1-c1ccc(CC(NC(=O)[C@H](CC(=O)O)NC(=O)[C@H](CO)NC(=O)[C@@H](NC(=O)C(C)(Cc2ccccc2F)NC(=O)[C@@H](NC(=O)CNC(=O)[C@H](CCC(N)=O)NC(=O)C(C)(C)NC(=O)[C@@H](N)Cc2c[nH]cn2)[C@@H](C)O)[C@@H](C)O)C(=O)NC(CCCc2ccc(F)cc2F)C(N)=O)cc1 (some centres unmarked) [compound 86] (H-H[Aib]QGT[ξαMePhe(2-F)]TSD[ξBip(2'-Et-4'-OMe)][X10]-NH2) |  |  |  |  |  | 12.3 ± 0.33 | 14.8 ± 0.16 | 28.1 ± 0.22
10 | CCc1cc(OC)ccc1-c1ccc(CC(NC(=S)[C@H](CC(=O)O)NC(=O)[C@H](CO)NC(=O)[C@@H](NC(=O)C(C)(Cc2ccccc2F)NC(=O)[C@@H](NC(=O)CNC(=O)[C@H](CCC(N)=O)NC(=O)C(C)(C)NC(=O)[C@H](Cc2c[nH]cn2)NC(C)=O)[C@H](C)O)[C@H](C)O)C(=S)NC(CCCc2ccccc2F)C(N)=O)cc1 (some centres unmarked) [compound 175] (Ac-H[Aib]QG[aThr][ξαMePhe(2-F)][aThr]S-X9) |  |  |  |  |  | 15.6 ± 0.33 | 21.8 ± 0.16 | 35.6 ± 0.26
11 | CCc1cc(OC)ccc1-c1ccc(CC(NC(=O)[C@H](CC(=O)O)NC(=O)[C@H](CO)NC(=O)[C@@H](NC(=O)[C@H](Cc2ccccc2)NC(=O)[C@@H](NC(=O)CNC(=O)C(CCC#N)NC(=O)C(C)(C)NC(=O)[C@@H](N)Cc2c[nH]cn2)[C@@H](C)O)[C@@H](C)O)C(=O)NC(CCCc2ccc(Cl)cc2Cl)C(N)=O)cc1 (some centres unmarked) [compound 83] (H-H[Aib][ξAbu(4-CN)]GTFTSD[ξBip(2'-Et-4'-OMe)][X6]-NH2) |  |  |  |  |  | 12.3 ± 0.33 | 14.1 ± 0.36 | 28.0 ± 0.16
12 | CCc1cc(OC)ccc1-c1ccc(CC(NC(=O)[C@H](CC(=O)O)NC(=O)[C@H](CO)NC(=O)[C@@H](NC(=O)C(C)(Cc2ccccc2F)NC(=O)[C@@H](NC(=O)CNC(=O)[C@H](CCC(N)=O)NC(=O)C(C)(C)NC(=O)[C@H](Cc2c[nH]cn2)NC(C)=O)[C@H](C)O)[C@H](C)O)C(=O)NC(CCCc2ccccc2)C(N)=O)cc1 (single isomer, unassigned) [compound 101] |  |  |  |  |  | 12.4 ± 0.22 | 15.2 ± 0.32 | 29.6 ± 0.50
